{"source": "paper PMC3714282", "about": "“Pharmacometabolomics of Response to Sertraline and to Placebo in Major Depressive Disorder – Possible Role for Methoxyindole Pathway” (PLoS ONE, 2013)", "tested_on": "serum metabolites (tryptophan, tyrosine, purine pathways, antioxidants)", "assay": "LCECA metabolomic profiling of serum: change from baseline at week 1 and week 4 (all, responders, non-responders)", "format": "in vivo, human", "conditions": "after four week of treatment", "description": "Study participants were outpatients, 18–65 years of age, from various clinical sites across the United States. […] A complete description of the inclusion and exclusion used in this study can be found in Table S1. The study protocol was developed in accordance with the principles of the Declaration of Helsinki. All patients provided written informed consent. The study was sponsored and monitored by Pfizer, Inc. Each site's institutional review board approved and oversaw the study. The primary outcome measure was the HAMD17, used to assess depressive symptom severity. Measures were gathered at baseline, and weeks 1 and 4 of treatment at the patient's visits. Serum samples were collected using standard protocol at baseline, week 1 and week 4 of treatment at the clinic visits. Whole blood was collected in serum collection tubes and inverted 5–8 times. Serum samples were allowed to clot at room temperature for 60 minutes and then centrifuged at 1,300×g for 15 minutes. Following centrifugation supernatant was frozen at −80°C until analysis.\nSamples were analyzed using a liquid chromatography electrochemical array (LCECA) platform that has been extensively validated and used in our prior studies in neurodegenerative and psychiatric disorders [30]–[34]. The method includes multiple compounds from the tyrosine, tryptophan, sulfur amino acids and purine pathways, and markers of oxidative stress and protection (for the list of metabolites and abbreviations see Table 1). Levels of 5-Methoxytryptamine (5-MTPM) were measured using a gas chromatography time-of-flight-mass spectrometry (GCTOF-MS) platform. Samples were prepared for analysis as previously described. During the sample preparation, pools were created from equal volumes of subaliquots of all samples. Concentrations of metabolites in the individual samples were expressed as a percentage of the concentration of those metabolites in the averaged pool.\nData preprocessing: We first removed the metabolites that have more than 40% missing values. […] Principal components analysis (PCA; SIMCA-P+12.0) was used to identify outliers. The analysis was performed for each time point. […] Subjects with ≥3 standard deviations away from the center of data cloud within two principal components (PC's) scores scatter plot were considered outliers and were removed from further analysis.\nThese analyses were conducted separately for the sertraline and placebo groups. Between groups t-tests were used to compare baseline to one week and baseline to four week change scores between the sertraline and placebo groups.\nSignatures of response to sertraline and placebo were identified by using paired t-tests to compare week 4 metabolite levels to baseline metabolite levels in the responders and non-responders to therapy. […] These analyses were also performed to evaluate changes in ratios of individual metabolites within (e.g., 5-HT/5-HTP) and between branches of tryptophan pathway (e.g., KYN/MEL).", "data": [{"smiles": "CN[C@H]1CC[C@@H](c2ccc(Cl)c(Cl)c2)c2ccccc21", "note": "[Sertraline, sertraline]", "values": [{"measurement": "Change of 3-OHKY (average change of log-transformed concentration)", "setting": "non-responders", "result": 0.013}, {"measurement": "Change of 3-OMD (average change of log-transformed concentration)", "setting": "non-responders", "result": -0.048}, {"measurement": "Change of 4-HBAC (average change of log-transformed concentration)", "setting": "non-responders", "result": 0.19}, {"measurement": "Change of 4-HPAC (average change of log-transformed concentration)", "setting": "non-responders", "result": 0.14}, {"measurement": "Change of 4-HPLA (average change of log-transformed concentration)", "setting": "non-responders", "result": 0.11}, {"measurement": "Change of 5-HIAA (average change of log-transformed concentration)", "setting": "non-responders", "result": -0.077}, {"measurement": "Change of 5-HT (average change of log-transformed concentration)", "setting": "non-responders", "result": -1.6}, {"measurement": "Change of 5-HTP (average change of log-transformed concentration)", "setting": "non-responders", "result": 0.24}, {"measurement": "Change of 5-MTPOL (average change of log-transformed concentration)", "setting": "non-responders", "result": 0.093}, {"measurement": "Change of 7-MXAN (average change of log-transformed concentration)", "setting": "non-responders", "result": 0.56}, {"measurement": "Change of ATOCO (average change of log-transformed concentration)", "setting": "non-responders", "result": 0.47}, {"measurement": "Change of CYS (average change of log-transformed concentration)", "setting": "non-responders", "result": -0.014}, {"measurement": "Change of DIOHMAL (average change of log-transformed concentration)", "setting": "non-responders", "result": 0.25}, {"measurement": "Change of DOPAC (average change of log-transformed concentration)", "setting": "non-responders", "result": -0.099}, {"measurement": "Change of DTOCO (average change of log-transformed concentration)", "setting": "non-responders", "result": 0.52}, {"measurement": "Change of GR (average change of log-transformed concentration)", "setting": "non-responders", "result": 0.31}, {"measurement": "Change of GRMP (average change of log-transformed concentration)", "setting": "non-responders", "result": -0.16}, {"measurement": "Change of GSH (average change of log-transformed concentration)", "setting": "non-responders", "result": -0.084}, {"measurement": "Change of HGA (average change of log-transformed concentration)", "setting": "non-responders", "result": 0.63}, {"measurement": "Change of HVA (average change of log-transformed concentration)", "setting": "non-responders", "result": 0.085}, {"measurement": "Change of HX (average change of log-transformed concentration)", "setting": "non-responders", "result": 0.014}, {"measurement": "Change of KYN (average change of log-transformed concentration)", "setting": "non-responders", "result": 0.066}, {"measurement": "Change of LD (average change of log-transformed concentration)", "setting": "non-responders", "result": 0.35}, {"measurement": "Change of MEL (average change of log-transformed concentration)", "setting": "non-responders", "result": 0.26}, {"measurement": "Change of METH (average change of log-transformed concentration)", "setting": "non-responders", "result": 0.3}, {"measurement": "Change of MHPG (average change of log-transformed concentration)", "setting": "non-responders", "result": -0.28}, {"measurement": "Change of NA-5-HT (average change of log-transformed concentration)", "setting": "non-responders", "result": 0.0044}, {"measurement": "Change of TRP (average change of log-transformed concentration)", "setting": "non-responders", "result": 0.11}, {"measurement": "Change of TRPOL (average change of log-transformed concentration)", "setting": "non-responders", "result": 0.053}, {"measurement": "Change of TYR (average change of log-transformed concentration)", "setting": "non-responders", "result": -0.11}, {"measurement": "Change of UA (average change of log-transformed concentration)", "setting": "non-responders", "result": -0.095}, {"measurement": "Change of VMA (average change of log-transformed concentration)", "setting": "non-responders", "result": 0.058}, {"measurement": "Change of XAN (average change of log-transformed concentration)", "setting": "non-responders", "result": -0.19}, {"measurement": "Change of XANTH (average change of log-transformed concentration)", "setting": "non-responders", "result": 0.098}, {"measurement": "Change of 3-OHKY (average change of log-transformed concentration)", "setting": "responders", "result": 0.071}, {"measurement": "Change of 3-OMD (average change of log-transformed concentration)", "setting": "responders", "result": 0.19}, {"measurement": "Change of 4-HBAC (average change of log-transformed concentration)", "setting": "responders", "result": 0.07}, {"measurement": "Change of 4-HPAC (average change of log-transformed concentration)", "setting": "responders", "result": 0.37}, {"measurement": "Change of 4-HPLA (average change of log-transformed concentration)", "setting": "responders", "result": 0.14}, {"measurement": "Change of 5-HIAA (average change of log-transformed concentration)", "setting": "responders", "result": -0.046}, {"measurement": "Change of 5-HT (average change of log-transformed concentration)", "setting": "responders", "result": -2.2}, {"measurement": "Change of 5-HTP (average change of log-transformed concentration)", "setting": "responders", "result": 0.014}, {"measurement": "Change of 5-MTPOL (average change of log-transformed concentration)", "setting": "responders", "result": 0.17}, {"measurement": "Change of 7-MXAN (average change of log-transformed concentration)", "setting": "responders", "result": -0.32}, {"measurement": "Change of ATOCO (average change of log-transformed concentration)", "setting": "responders", "result": 0.76}, {"measurement": "Change of CYS (average change of log-transformed concentration)", "setting": "responders", "result": 0.0094}, {"measurement": "Change of DIOHMAL (average change of log-transformed concentration)", "setting": "responders", "result": 0.47}, {"measurement": "Change of DOPAC (average change of log-transformed concentration)", "setting": "responders", "result": 0.058}, {"measurement": "Change of DTOCO (average change of log-transformed concentration)", "setting": "responders", "result": 0.88}, {"measurement": "Change of GR (average change of log-transformed concentration)", "setting": "responders", "result": -0.26}, {"measurement": "Change of GRMP (average change of log-transformed concentration)", "setting": "responders", "result": 0.23}, {"measurement": "Change of GSH (average change of log-transformed concentration)", "setting": "responders", "result": 0.096}, {"measurement": "Change of HGA (average change of log-transformed concentration)", "setting": "responders", "result": 0.21}, {"measurement": "Change of HVA (average change of log-transformed concentration)", "setting": "responders", "result": 0.12}, {"measurement": "Change of HX (average change of log-transformed concentration)", "setting": "responders", "result": -0.022}, {"measurement": "Change of KYN (average change of log-transformed concentration)", "setting": "responders", "result": 0.027}, {"measurement": "Change of LD (average change of log-transformed concentration)", "setting": "responders", "result": -0.069}, {"measurement": "Change of MEL (average change of log-transformed concentration)", "setting": "responders", "result": 0.68}, {"measurement": "Change of METH (average change of log-transformed concentration)", "setting": "responders", "result": 0.12}]}]}
